One test concerns the target T1, FTSJ1-WDR6 (Homo sapiens, UniProt Q9UET6).
T1 construct: mixture of FTSJ1 (C-terminal His6, High Five cells) and WDR6 (N-terminal GST, Sf9 cells), purified separately; binary complex; with tRNA (34-2'-O)-methyltransferase regulator WDR6
T1 sequence (Q9UET6 1-327 isoform Q9UET6-2): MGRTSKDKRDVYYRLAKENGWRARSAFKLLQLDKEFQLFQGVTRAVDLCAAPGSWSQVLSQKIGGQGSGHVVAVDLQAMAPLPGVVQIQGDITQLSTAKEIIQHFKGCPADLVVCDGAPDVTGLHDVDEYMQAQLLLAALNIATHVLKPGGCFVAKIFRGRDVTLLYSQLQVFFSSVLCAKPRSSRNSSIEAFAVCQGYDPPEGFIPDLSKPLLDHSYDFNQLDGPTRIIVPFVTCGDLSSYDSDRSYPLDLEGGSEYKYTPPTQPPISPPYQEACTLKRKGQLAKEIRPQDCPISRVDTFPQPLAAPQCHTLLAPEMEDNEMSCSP
T1 sequence (Q9NNW5 1-1121 partner): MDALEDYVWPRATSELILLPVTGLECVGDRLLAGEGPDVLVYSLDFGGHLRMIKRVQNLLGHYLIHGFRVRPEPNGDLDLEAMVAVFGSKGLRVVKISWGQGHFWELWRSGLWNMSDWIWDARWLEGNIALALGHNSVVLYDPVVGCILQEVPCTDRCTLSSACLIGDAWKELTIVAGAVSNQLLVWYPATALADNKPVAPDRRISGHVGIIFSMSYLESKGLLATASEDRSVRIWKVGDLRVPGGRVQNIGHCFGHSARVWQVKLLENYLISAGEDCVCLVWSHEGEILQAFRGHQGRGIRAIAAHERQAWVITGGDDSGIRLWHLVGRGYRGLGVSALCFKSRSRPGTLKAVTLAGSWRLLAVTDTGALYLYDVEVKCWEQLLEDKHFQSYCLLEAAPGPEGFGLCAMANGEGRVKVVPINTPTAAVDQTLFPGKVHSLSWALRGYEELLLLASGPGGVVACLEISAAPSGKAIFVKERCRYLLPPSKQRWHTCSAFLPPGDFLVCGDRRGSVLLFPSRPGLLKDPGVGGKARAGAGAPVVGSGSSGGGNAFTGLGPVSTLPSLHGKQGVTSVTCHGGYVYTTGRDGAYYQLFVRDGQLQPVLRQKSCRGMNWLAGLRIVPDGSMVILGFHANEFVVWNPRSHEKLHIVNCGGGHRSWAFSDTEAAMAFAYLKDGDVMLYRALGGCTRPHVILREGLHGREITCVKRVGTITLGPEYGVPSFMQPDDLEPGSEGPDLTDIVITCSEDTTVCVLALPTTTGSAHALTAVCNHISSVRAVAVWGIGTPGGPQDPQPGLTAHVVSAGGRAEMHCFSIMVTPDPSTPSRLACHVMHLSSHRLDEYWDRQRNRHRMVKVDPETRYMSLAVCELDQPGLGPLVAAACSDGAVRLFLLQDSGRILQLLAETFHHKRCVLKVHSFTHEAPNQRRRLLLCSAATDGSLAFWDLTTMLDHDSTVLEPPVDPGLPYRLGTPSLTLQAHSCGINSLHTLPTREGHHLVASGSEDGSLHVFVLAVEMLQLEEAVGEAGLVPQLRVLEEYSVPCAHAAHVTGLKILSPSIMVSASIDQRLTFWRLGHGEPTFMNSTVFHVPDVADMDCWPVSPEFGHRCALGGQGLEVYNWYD
The test is described as follows: tRNA […]'-O-methyl transfer, UPLC-MS/MS of Gm34. It counts as biochemical. The note with it: methyl donor, 100 μM SAM; co-substrate 5 μM tRNAPhe(GAA) from ftsj1 KO cells or with m1G37; 10 mM MgCl2, pH 7.5, 37°C, 2 h.

Another test has as its target T2, FTSJ1 (FTSJ1-His) (Homo sapiens, UniProt Q9UET6).
T2 construct: full-length, C-terminal His6-tag kept, baculovirus/High Five insect cells; cDNA from HeLa RNA; 327 residues as printed
T2 sequence (Q9UET6 1-327 isoform Q9UET6-2): T1 sequence (Q9UET6 1-327 isoform Q9UET6-2)
Briefly: isothermal titration calorimetry (iTC200), one-site model. It counts as binding. For orientation: ITC needs no label: the signal is the heat of the interaction.

Consider `C[S+](CC[C@H](N)C(=O)O)C[C@H]1O[C@@H](n2cnc3c(N)ncnc32)[C@H](O)[C@@H]1O` (some centres unmarked) [SAM], for which the “tRNA 2'-O-methyl transfer, UPLC-MS/MS of Gm34” value at FTSJ1-WDR6 is given as “robust Gm formation was detected after incubation with FTSJ1‐WDR6”. The compound also showed a Kd on FTSJ1 (FTSJ1-His) of approximately 4 µM.

By Kd is commonly meant the free concentration of one partner at which half of the binding sites on the other are occupied at equilibrium, for simple one-to-one binding.

The values above are taken from publication PMC7403668, “Intellectual disability‐associated gene ftsj1 is responsible for 2′‐O‐methylation of specific tRNAs” (EMBO Reports, 2020).
